Results as given in PMC10093836, “Stabilization of the Dimeric State of SARS-CoV-2 Main Protease by GC376 and Nirmatrelvir” (International Journal of Molecular Sciences, 2023).

Biological target: SARS-CoV-2 Mpro dimer (Severe acute respiratory syndrome coronavirus 2, UniProt P0DTD1)
Test: SAXS monomer-dimer equilibrium of Mpro in the presence of inhibitors

Compound: CC(C)c1nc(CN(C)C(=O)N[C@H](C(=O)N[C@@H](Cc2ccccc2)C[C@H](O)[C@H](Cc2ccccc2)NC(=O)OCc2cncs2)C(C)C)cs1 [RTV, ritonavir]
- ΔCp of Mpro dimer dissociation (Mpro alone 1.3 ± 0.4): 4 ± 1 kJ K^−1mol^−1
- ΔS^0 of Mpro dimer dissociation (T0 = 298.15 K, Mpro alone −30 ± 10): −70 ± 50 J K^−1mol^−1
- ΔH^0 of Mpro dimer dissociation (T0 = 298.15 K, derived parameter of the fit, Mpro alone 21 ± 4): 2.63 ± 1.2 kcal/mol
